Measurements published in patent US12486284B2, “Ubiquitin-specific protease inhibitor and preparation method therefor and use thereof” (CHASER THERAPEUTICS, INC., priority 2019, dated 2025).
Where two headings read alike, the source gives them in different places.

How the values were obtained:
[1] = target: T1, USP28 (Homo sapiens, UniProt Q96RU2); assay: USP28 activity measured using ubiquitin-rhodamine 110 method; format: biochemical; details: for IC50: purified USP28 4 nM, ubiquitin-rhodamine 110 125 nM, 30 min preincubation
T1 construct: purchased R&D Systems
T1 sequence (Q96RU2 1-1077): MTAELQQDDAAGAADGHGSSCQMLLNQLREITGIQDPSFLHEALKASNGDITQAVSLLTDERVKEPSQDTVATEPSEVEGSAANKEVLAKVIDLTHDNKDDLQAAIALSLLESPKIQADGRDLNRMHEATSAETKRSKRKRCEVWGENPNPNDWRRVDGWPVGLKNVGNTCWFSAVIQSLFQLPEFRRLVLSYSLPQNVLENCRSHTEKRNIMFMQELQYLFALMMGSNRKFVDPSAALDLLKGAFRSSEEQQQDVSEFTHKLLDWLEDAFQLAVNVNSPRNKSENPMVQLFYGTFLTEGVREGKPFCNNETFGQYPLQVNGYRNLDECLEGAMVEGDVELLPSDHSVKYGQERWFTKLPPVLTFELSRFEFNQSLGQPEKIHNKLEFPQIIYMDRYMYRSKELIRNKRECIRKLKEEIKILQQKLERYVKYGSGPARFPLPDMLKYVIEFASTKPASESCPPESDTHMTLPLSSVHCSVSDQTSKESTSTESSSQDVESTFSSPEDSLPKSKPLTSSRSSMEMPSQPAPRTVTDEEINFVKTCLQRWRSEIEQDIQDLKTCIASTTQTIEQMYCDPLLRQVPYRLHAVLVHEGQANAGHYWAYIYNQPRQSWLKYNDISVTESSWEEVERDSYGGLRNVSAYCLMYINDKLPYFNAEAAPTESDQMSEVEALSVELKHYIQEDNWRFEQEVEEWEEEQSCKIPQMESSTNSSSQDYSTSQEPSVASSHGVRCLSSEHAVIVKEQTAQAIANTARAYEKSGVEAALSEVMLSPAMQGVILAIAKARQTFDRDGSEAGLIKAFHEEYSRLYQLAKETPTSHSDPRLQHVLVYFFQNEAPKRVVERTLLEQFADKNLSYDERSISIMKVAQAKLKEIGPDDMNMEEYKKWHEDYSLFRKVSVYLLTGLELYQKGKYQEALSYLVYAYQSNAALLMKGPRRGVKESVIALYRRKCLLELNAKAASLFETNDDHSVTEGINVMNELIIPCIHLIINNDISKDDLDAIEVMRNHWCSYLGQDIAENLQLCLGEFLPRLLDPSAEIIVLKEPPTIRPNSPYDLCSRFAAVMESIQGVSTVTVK
Method: USP28 activity was measured using ubiquitin-rhodamine 110 method.
(§1) Purified USP28 and the ubiquitin-rhodamine 110 substrate used for measuring DUBs activity were both from R&D Systems. Test compounds were first dissolved in DMSO to prepare a 10 mM stock solution, and then the stock solution was diluted with a buffer solution [containing 20 mM Tris-HCl (pH 8.0), 2 mM CaCl2), 3 mM BME, 0.01% Prionix, 0.01% Triton X-100] to the desired concentration (with DMSO content less than or equal to 0.5%). The dilution was mixed well with USP28 (final concentration 4 nM) in a 96-well plate and incubated at room temperature for 30 min, and then added with the substrate (ubiquitin-rhodamine 110) to 125 nM. The final volume of the whole reaction system was 20 μL. The released fluorescence (excitation wavelength 485 nm, emission wavelength 535 nm) was detected immediately on a microplate reader after the addition of the substrate. The inhibitory rate of the test compound against USP28 was calculated according to the following formula: Inhibition %=1−[(test compound+fluorescence value of substrate−fluorescence value of test compound (no substrate))/mean fluorescence value of DMSO control group−fluorescence value of test compound (no substrate)]
According to the inhibitory rates of the test compound against USP28 under different concentrations, IC50 was calculated.

[2] = target: T2, USP25 (Homo sapiens, UniProt Q9UHP3); assay: USP25 activity measured using ubiquitin-rhodamine 110 method; format: biochemical; details: for IC50: purified USP25 15 nM, ubiquitin-rhodamine 110 125 nM, 30 min preincubation
T2 construct: purchased R&D Systems
T2 sequence (Q9UHP3 1-1055): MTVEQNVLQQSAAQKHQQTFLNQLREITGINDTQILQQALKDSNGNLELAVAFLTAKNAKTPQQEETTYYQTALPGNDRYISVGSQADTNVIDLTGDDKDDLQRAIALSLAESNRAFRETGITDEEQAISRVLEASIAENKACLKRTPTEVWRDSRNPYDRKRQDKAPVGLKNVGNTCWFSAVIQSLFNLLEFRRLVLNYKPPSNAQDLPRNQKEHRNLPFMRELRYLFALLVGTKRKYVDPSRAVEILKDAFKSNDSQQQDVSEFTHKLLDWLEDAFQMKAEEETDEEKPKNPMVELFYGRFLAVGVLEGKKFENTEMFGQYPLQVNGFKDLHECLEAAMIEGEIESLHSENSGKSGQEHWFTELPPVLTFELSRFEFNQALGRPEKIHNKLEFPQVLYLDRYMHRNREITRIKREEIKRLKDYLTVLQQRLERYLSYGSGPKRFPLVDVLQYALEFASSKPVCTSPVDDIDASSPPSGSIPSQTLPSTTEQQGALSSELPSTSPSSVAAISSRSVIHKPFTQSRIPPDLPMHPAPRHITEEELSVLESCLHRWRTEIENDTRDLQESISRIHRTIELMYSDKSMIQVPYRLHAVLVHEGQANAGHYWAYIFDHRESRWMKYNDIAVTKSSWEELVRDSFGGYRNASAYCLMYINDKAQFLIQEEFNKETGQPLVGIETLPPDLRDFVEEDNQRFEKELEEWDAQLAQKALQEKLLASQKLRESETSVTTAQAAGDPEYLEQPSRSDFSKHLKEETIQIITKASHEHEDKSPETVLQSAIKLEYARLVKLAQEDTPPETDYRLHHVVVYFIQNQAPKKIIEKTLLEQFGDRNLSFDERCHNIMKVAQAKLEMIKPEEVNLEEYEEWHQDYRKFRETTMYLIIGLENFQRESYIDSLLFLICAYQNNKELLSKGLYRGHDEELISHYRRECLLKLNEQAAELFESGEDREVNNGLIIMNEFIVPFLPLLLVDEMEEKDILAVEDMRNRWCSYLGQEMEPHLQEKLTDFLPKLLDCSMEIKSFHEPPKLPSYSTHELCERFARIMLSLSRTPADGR
Method: USP25 activity was measured using ubiquitin-rhodamine 110 method.
as §1, with “Purified USP25” for “Purified USP28”, “with USP25” for “with USP28”, “concentration 15” for “concentration 4”, “the substrate, and the” for “the substrate. The”, “against USP25” for “against USP28”
As in Example 11, according to the inhibitory rates of the test compound against USP25 under different concentrations, IC50 was calculated.

[3] = read-out: Inhibitory activity against USP28 (IC50)
[4] = read-out: Inhibitory activity against USP25 (IC50)
[5] = Inhibitory activity against USP28 (IC50)
[6] = Inhibitory activity against USP25 (IC50)
[7] = ratio of IC50 of related 3-NH2 compound (F) to IC50 of 3-NHMe compound disclosed herein (E)

SMILES | IC50 [1, 3] | IC50 [2, 4] | IC50 [1, 5] | also measured
CNc1c(C(=O)NCCc2ccc(N3C[C@H]4CC[C@@H](C3)N4)cc2)sc2nc(C)cc(C)c12 [Compound I-26] | 0.1 to 1 µM | 5 to 10 µM |  | 
CNc1c(C(=O)NCCc2ccc(N3C[C@H]4CC[C@@H](C3)N4)cc2)sc2nc(C)cc(C(F)(F)F)c12 [Compound I-27] |  |  | < 0.1 µM | IC50 [2, 6]: < 0.1 µM
CNc1c(C(=O)NCCc2ccc(N3C[C@H]4CC[C@@H](C3)N4)cc2)sc2nc(C(F)F)cc(C)c12 [Compound I-28] |  |  | < 0.1 µM | IC50 [2, 6]: < 0.1 µM
CNc1c(C(=O)NCCc2ccc(N3C[C@H]4CC[C@@H](C3)N4)cc2)sc2nc(C)c(F)cc12 [Compound I-29] |  | 0.1 to 1 µM | < 0.1 µM | 
CNc1c(C(=O)NCCc2ccc(N3C[C@H]4CC[C@@H](C3)N4)cc2)sc2nc(C)c(C)cc12 [Compound I-30] | 0.1 to 1 µM | 1 to 5 µM |  | 
CCc1nc2sc(C(=O)NCCc3ccc(N4C[C@H]5CC[C@@H](C4)N5)cc3)c(NC)c2cc1C [Compound I-31] |  | 0.1 to 1 µM | < 0.1 µM | 
CCc1nc2sc(C(=O)NCCc3ccc(N4C[C@H]5CC[C@@H](C4)N5)cc3)c(NC)c2c(C(F)(F)F)c1C [Compound I-32] |  | 5 to 10 µM | < 0.1 µM | 
CNc1c(C(=O)NCCc2ccc(N3C[C@H]4CC[C@@H](C3)N4)c(C)c2)sc2nc(C)ccc12 [Compound I-33] |  | 5 to 10 µM | < 0.1 µM | 
CCc1cc(CCNC(=O)c2sc3nc(C)ccc3c2NC)ccc1N1[C@@H]2CC[C@H]1CNC2 [Compound I-34] |  | 0.1 to 1 µM | < 0.1 µM | 
CNc1c(C(=O)NCCc2ccc(N3C[C@H]4CC[C@@H](C3)N4)c(C3CC3)c2)sc2nc(C)ccc12 [Compound I-35] |  | 0.1 to 1 µM | < 0.1 µM | 
CNc1c(C(=O)NCCc2ccc(N3C[C@H]4CC[C@@H](C3)N4)c(OC)c2)sc2nc(C)ccc12 [Compound I-36] |  |  | < 0.1 µM | IC50 [2, 6]: < 0.1 µM
CNc1c(C(=O)NCCc2ccc(N3C[C@H]4CC[C@@H](C3)N4)c(C#N)c2)sc2nc(C)ccc12 [Compound I-37] |  |  | < 0.1 µM | IC50 [2, 6]: < 0.1 µM
CNc1c(C(=O)NCCc2ccc(N3C[C@H]4CC[C@@H](C3)N4)c(Cl)c2)sc2nc(C)ccc12 [Compound I-38] |  | > 10 µM | < 0.1 µM | 
CNc1c(C(=O)NCCc2ccc(N3C[C@H]4CC[C@@H](C3)N4)cc2F)sc2nc(C)ccc12 [Compound I-39] | 0.1 to 1 µM | 0.1 to 1 µM |  | 
CNc1c(C(=O)NCCc2ccc(N3C[C@H]4CC[C@@H](C3)N4)c(F)c2)sc2nc(C)ccc12 [Compound I-40] |  | 0.1 to 1 µM | < 0.1 µM | 
CNc1c(C(=O)NCCc2ccc(N3C[C@H]4CC[C@@H](C3)N4)c(C(F)(F)F)c2)sc2nc(C)ccc12 [Compound I-41] | 0.1 to 1 µM | > 10 µM |  | 
CNc1c(C(=O)NCCc2cc(F)c(N3C[C@H]4CC[C@@H](C3)N4)cc2F)sc2nc(C)ccc12 [Compound I-42] |  | > 10 µM | < 0.1 µM | 
CNc1c(C(=O)NCCc2cc(F)c(N3C[C@H]4CC[C@@H](C3)N4)c(F)c2)sc2nc(C)ccc12 [Compound I-43] |  | > 10 µM | < 0.1 µM | 
CNc1c(C(=O)NCCc2cc(F)c(N3C[C@H]4CC[C@@H](C3)N4)c(Cl)c2)sc2nc(C)ccc12 [Compound I-44] |  | > 10 µM | < 0.1 µM | 
CNc1c(C(=O)NCCc2c(F)cc(N3C[C@H]4CC[C@@H](C3)N4)cc2F)sc2nc(C)ccc12 [Compound I-45] |  | > 10 µM | < 0.1 µM | 
CNc1c(C(=O)NCCc2ccc(N3C[C@H]4CC[C@@H](C3)N4)c(F)c2F)sc2nc(C)ccc12 [Compound I-46] | 0.1 to 1 µM | 5 to 10 µM |  | 
CNc1c(C(=O)NCCc2cc(F)c(N3C[C@H]4CC[C@@H](C3)N4)c(F)c2F)sc2nc(C)ccc12 [Compound I-47] |  | 5 to 10 µM | < 0.1 µM | 
CNc1c(C(=O)NCCc2c[nH]c3ccccc23)sc2ncccc12 [Compound I-48] | < 0.1 µM | 5 to 10 µM |  | 
CNc1c(C(=O)NCCc2c[nH]c3ccccc23)sc2nc(C)ccc12 [Compound I-49] | < 0.1 µM | 1 to 5 µM |  | IC50(F)/IC50(E) USP28 [1, 7]: 5.0; IC50(F)/IC50(E) USP25 [2, 7]: >7
CCc1ccc2c(NC)c(C(=O)NCCc3c[nH]c4ccccc34)sc2n1 [Compound I-50] | < 0.1 µM | 1 to 5 µM |  | 
CCCc1ccc2c(NC)c(C(=O)NCCc3c[nH]c4ccccc34)sc2n1 [Compound I-51] | < 0.1 µM | 1 to 5 µM |  | 
CCc1nc2sc(C(=O)NCCc3c[nH]c4ccccc34)c(NC)c2cc1C [Compound I-52] | < 0.1 µM | 5 to 10 µM |  | 
CNc1c(C(=O)NCCc2c[nH]c3ccccc23)sc2nc(C)cc(C)c12 [Compound I-53] | 0.1 to 1 µM | > 10 µM |  | 
